Test results as given in patent publication US6727279B2, “Arylsulphonamides and analogues” (Bayer Aktiengesellschaft, priority 1998, dated 2004).

Molecular target: T1, rat CB1 receptor (Rattus norvegicus, UniProt P20272)
T1 construct: contains an open reading frame of 1419 base pairs which corresponds to a protein of 473 amino acids; expressed in transfected cells; host or cells: CHOluc9 cells (CHO luciferase reporter line), stably transfected with pRc/CMV-based plasmid CMV-RH
Test: CB1 luciferase reporter gene test
Format: cell-based
Details: CHOluc9 cells stably transfected with rat CB1, forskolin-stimulated luciferase; read-out: IC50 (nmol/l), activity in the rat CB1 receptor luciferase receptor gene test
Source text: CB1—Luciferase Reporter Gene Test
1. Cloning of the Rat Cannabinoid Receptor CB1
Total RNA from rat brain (the tissue was taken from freshly killed animals and shock-frozen in liquid nitrogen) was isolated by acidic guanidinium thiocyanate/phenol/chloroform extraction (J. Biol. Chem. 1979, 18, 5294) and converted into cDNA by means of reverse transcriptase and random primers (in each case from Invitrogen). […] This PCR product was subcloned into the TA cloning vector (Invitrogen) and the nucleotide sequence of the insert was determined by the dideoxynucleotide chain termination reaction using T7DNA polymerase (Sequenase, USA/Amersham). The insert has a length of 1477 base pairs and contains an open reading frame of 1419 base pairs which corresponds to a protein of 473 amino acids. The number of base pairs, the position of the open reading frame and the number of amino acids agree with the published sequence. […]

T1 sequence (P20272 whole entry): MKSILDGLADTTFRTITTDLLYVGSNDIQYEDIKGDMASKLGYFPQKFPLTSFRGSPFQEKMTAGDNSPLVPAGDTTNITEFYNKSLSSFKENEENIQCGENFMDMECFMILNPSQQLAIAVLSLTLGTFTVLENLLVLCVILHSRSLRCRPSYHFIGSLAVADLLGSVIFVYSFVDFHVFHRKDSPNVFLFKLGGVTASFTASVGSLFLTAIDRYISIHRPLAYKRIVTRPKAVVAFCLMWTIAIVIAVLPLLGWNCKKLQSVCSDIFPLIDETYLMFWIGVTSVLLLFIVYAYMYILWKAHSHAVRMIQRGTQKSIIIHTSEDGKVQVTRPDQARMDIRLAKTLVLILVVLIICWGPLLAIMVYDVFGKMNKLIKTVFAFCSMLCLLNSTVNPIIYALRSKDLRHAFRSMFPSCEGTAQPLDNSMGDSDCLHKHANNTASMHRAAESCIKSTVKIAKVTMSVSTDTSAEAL

Structure (SMILES): O=S(=O)(CCCC(F)(F)F)Oc1cccc(Oc2cccc3cc(CO)oc23)c1 [Example 1, 2-Hydroxymethyl-7-[3-(4,4,4-trifluorobutyl-1-sulphonyloxy)phenyl-1-oxy]-benzofuran]
- IC50: 0.55 nmol/L
